Test results published in patent US20080293746A1 (priority 2007, published 2008).

Assays:
[1] = clinical; details: human, in vivo, po
Excerpt: (§1) The pharmacokinetics of sildenafil after oral tablet administration have been extensively studied in healthy volunteers. The pharmacokinetics of 1-(2-ethoxyethyl)-5-[ethyl(methyl)amino]-N-mesyl-7-[(4-methyl-2-pyridyl)amino]-1H-pyrazolo[4,3-o]pyrimidine-3-carboxamide have been recently studied in several healthy volunteer studies.

[2] = tested on: CCI-induced static allodynia; assay: Chronic constriction injury (CCI) rat model of neuropathic pain, assessment of static allodynia (von Frey hairs, paw withdrawal threshold); type: in vivo
Description: Animals: Male Sprague Dawley rats (150-250 g at the time of surgery), obtained from Charles River, (Manston, Kent, U.K.) were housed in groups of 3. All animals were kept under a 12 hour light/dark cycle (lights on at 07 h 00 min) with food and water ad libitum. All experiments were carried out by an observer blind to the treatments and in accordance with the Home Office Animals (Scientific Procedures) Act 1986.
The CCI of sciatic nerve was performed as previously described by Bennett and Xie (Bennett G J, Xie Y K. A peripheral mononeuropathy in rat that produces disorders of pain sensation like those seen in man. Pain: 33:87-107, 1988). Animals were anaesthetised with a 2% isofluorane/O2 mixture. The right hind thigh was shaved and swabbed with 1% iodine. Animals were then transferred to a homeothermic blanket for the duration of the procedure and anaesthesia maintained during surgery via a nose cone. The skin was cut along the line of the thighbone and the common sciatic nerve was exposed Four ligatures (4-0 silk) were tied loosely around the nerve, 1 cm proximally to the trifurcation, with approx 1 mm spacing. The incision was closed in layers.
Animals were habituated to wire bottom test cages prior to the assessment of allodynia. Static allodynia was evaluated by application of calibrated von Frey hairs (Stoelting, Wood Dale, Ill., USA.) in ascending order of force (0.8, 1, 1.4, 2, 4, 6, 8, 10, 15 and 26 grams) to the plantar surface of hind paws. Each von Frey hair was applied to the paw for a maximum of 6 seconds, or until a withdrawal response occurred. Once a withdrawal response to a von Frey hair was established, the paw was re-tested, starting with the filament below the one that produced a withdrawal, and subsequently with the remaining filaments in descending force sequence until no withdrawal occurred. The highest force of 26 g lifted the paw as well as eliciting a response, thus represented the cut off point. Each animal had both hind paws tested in this manner. The lowest amount of force required to elicit a response was recorded as paw withdrawal threshold (PWT) in grams. Static allodynia was defined as present if animals responded to a stimulus of, or less than, 4 g, which is innocuous in naive rats (Field M J, Bramwell S, Hughes J, Singh L. Detection of static and dynamic components of mechanical allodynia in rat models of neuropathic pain: are they signalled by distinct primary sensory neurones? Pain, 1999; 83:303-11).

[3] = Free plasma concentrations in the rat CCI studies; details: Sprague Dawley; for concentration at 2.5 h: in vivo
Excerpt: It is important to ascertain whether any concluded synergy observed in animals or man is due solely to pharmacokinetic interactions.

[4] = human, in vivo, po
Excerpt: as §1

[5] = oral dosing, CCI-induced static allodynia, rat (FIG. 1)

Row | Structure (SMILES) | half-life [1] | effect on any allodynia endpoint ([2]; compound alone, oral dosing at 0.1 to 1 mg/kg (FIG. 2)) | concentration at 1.3 h ([3]; plasma, oral, 1 mg/kg) | concentration at 4.3 h ([3]; plasma, oral, 1 mg/kg) | dose at which a full effect is achieved [2, 5] | minimum effective dose (MED) [2, 5] | effect on static allodynia endpoints ([2]; pregabalin alone 10 mg/kg, 2 hours after dosing (FIG. 3)) | concentration at 2.5 h ([3]; 3 mg/kg) | concentration at 2.5 h ([3]; 20 mg/kg) | steady state peak to trough ratio of plasma concentration time profile [4]
1 | CCOCCn1nc(C(=O)NS(C)(=O)=O)c2nc(N(C)CC)nc(Nc3cc(C)ccn3)c21 | 600 to 900 min | no effect observed | ≤ 10.2 nM | ≤ 16.1 nM |  |  |  |  |  | 
2 | CC(C)C[C@H](CN)CC(=O)O [pregabalin, (S)-(+)-4-amino-3-(2-methylpropyl)butanoic acid] |  |  |  |  | 20 mg/kg | 3 mg/kg | partially reversed | 17.8 µM | 89.8 µM | 
3 | CCCc1nn(C)c2c(=O)[nH]c(-c3cc(S(=O)(=O)N4CCN(C)CC4)ccc3OCC)nc12 [sildenafil, 5-[2-ethoxy-5-(4-methyl-1-piperazinyl-sulphonyl)phenyl]-1-methyl-3-n-propyl-1,6-dihydro-7H-pyrazolo[4,3-d]pyrimidin-7-one] | 240 min |  |  |  |  |  |  |  |  | ~4 fold
